As a reminder, the Kd is a measure of binding affinity in units of concentration. The low end stands for a tighter complex, the high end for a looser complex. Usually Ki stands for a dissociation constant, usually derived from enzyme kinetics or from competition with a known ligand. Higher therefore signals a looser hold on the target.

For four compounds, Kd and Ki results are on record in PMC10214524, “A Systematic Approach to the Discovery of Protein–Protein Interaction Stabilizers” (ACS Central Science, 2023).

Where a SMILES comes first, the peptide text is derived from it.

Assay [1] addresses T1, 14-3-3σ (Homo sapiens, UniProt P31947).
T1 sequence (P31947 1-231 limits assumed): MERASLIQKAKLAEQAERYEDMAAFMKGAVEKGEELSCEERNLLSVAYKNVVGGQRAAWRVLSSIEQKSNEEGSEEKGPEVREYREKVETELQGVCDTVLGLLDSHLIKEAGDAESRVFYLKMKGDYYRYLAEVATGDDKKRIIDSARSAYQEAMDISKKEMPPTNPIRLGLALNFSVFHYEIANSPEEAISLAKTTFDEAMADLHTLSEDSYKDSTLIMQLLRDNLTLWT
Description: 14-3-3σ titration to FITC-labeled phosphopeptide (peptide affinity).
Description: (§1) 14-3-3σ/phosphopeptide binding curves to determine binding affinities. (A) Protein titration with 14 -3-3σ in
(§2) (B) Competition assay used to determine Ki of
(§3) acetylated FOXO1 11-mer peptide (Ac-FOXO1) for mass spectrometry experiments. Ac-FOXO1 was titrated from high to
(§4) used to determine Ki of acetylated C-RAF 11-mer peptide (Ac-CRAF). (E) Protein titration with 14-3-3σ in presence of 100
(§5) nM FITC-labeled ERα 15-mer peptide determined KD. (F) Competition assay used to determine Ki of acetylated ΕRα 15-me r
(§6) peptide (Ac-ERα). (G) Protein titration with 14-3-3σ in presence of 100 nM FITC-labeled USP8 13-mer peptide determined
(§7) KD. (H) Competition assay used to determine Ki of acetylated USP8 13-mer peptide (Ac-USP8) . ( I) Protein titration with 14 -
(§8) of acetylated SOS1 13 -mer peptide (Ac-SOS1).

The target of assay [2] is T1, 14-3-3σ. Description: Ac-peptide competition assay against FITC-peptide (peptide affinity).
Description: as §1, §2, §3, §4, §5, §6, §7, §8

`CC[C@H](C)[C@H](NC(=O)[C@H](CC(=O)O)NC(=O)[C@@H]1CCCN1C(=O)[C@H](CO)NC(=O)[C@H](COP(=O)(O)O)NC(=O)[C@H](Cc1ccc(O)cc1)NC(=O)[C@H](CO)NC(=O)[C@H](CCCNC(=N)N)NC(=O)[C@H](CCCCN)NC(=O)[C@H](CC(C)C)NC(=O)[C@H](CCCCN)NC(C)=O)C(=O)N[C@H](C(=O)N[C@@H](CCC(N)=O)C(N)=O)[C@@H](C)O` [USP8, Ac-KLKRSY{pS}SPDITQ-CONH2] (HELM PEPTIDE1{[ac].K.L.K.R.S.Y.[O=C([C@H](COP(=O)(O)O)N[*:1])[*:2]].S.P.D.I.T.Q.[am]}$$$$V2.0) returned a Kd at 14-3-3σ [1] of 3.77 µM. Besides, on 14-3-3σ [2], the Ki is 14.3 µM.

Regarding `CC(=O)N[C@@H](CCCNC(=N)N)C(=O)N1CCC[C@H]1C(=O)N[C@@H](CCCNC(=N)N)C(=O)N[C@@H](CO)C(=O)N[C@@H](CS)C(=O)N[C@H](C(=O)N[C@@H](Cc1c[nH]c2ccccc12)C(=O)N1CCC[C@H]1C(=O)N[C@@H](CC(C)C)C(=O)N1CCC[C@H]1C(=O)N[C@@H](CCCNC(=N)N)C(N)=O)[C@@H](C)OP(=O)(O)O` [FOXO1, Ac-RPRSC{pT}WPLPR-CONH2] (HELM PEPTIDE1{[ac].R.P.R.S.C.[C[C@@H](OP(=O)(O)O)[C@H](N[*:1])C(=O)[*:2]].W.P.L.P.R.[am]}$$$$V2.0), the affinity on 14-3-3σ [2], expressed as Ki, was 0.396 µM.

Take `CC(=O)N1CCC[C@H]1C(=O)N[C@@H](CCCNC(=N)N)C(=O)N[C@@H](CCCNC(=N)N)C(=O)N[C@@H](CCCNC(=N)N)C(=O)N1CCC[C@H]1C(=O)N[C@@H](CCC(=O)O)C(=O)N[C@@H](COP(=O)(O)O)C(=O)N[C@@H](C)C(=O)N1CCC[C@H]1C(=O)N[C@@H](C)C(=O)N[C@@H](CCC(=O)O)C(=O)N[C@@H](CO)C(=O)N[C@@H](CO)C(N)=O` [SOS1, Ac-PRRRPE{pS}APAESS-CONH2] (HELM PEPTIDE1{[ac].P.R.R.R.P.E.[O=C([C@H](COP(=O)(O)O)N[*:1])[*:2]].A.P.A.E.S.S.[am]}$$$$V2.0): the Kd at 14-3-3σ [1] amounted to 5.06 µM. This compound registered a Ki on 14-3-3σ [2] of 3.66 µM.

`CC(=O)N[C@@H](CCCNC(=N)N)C(=O)N[C@@H](CCC(N)=O)C(=O)N[C@@H](CCCNC(=N)N)C(=O)N[C@@H](CO)C(=O)N[C@H](C(=O)N[C@@H](COP(=O)(O)O)C(=O)N[C@H](C(=O)N1CCC[C@H]1C(=O)N[C@@H](CC(N)=O)C(=O)N[C@H](C(=O)N[C@@H](Cc1c[nH]cn1)C(N)=O)C(C)C)[C@@H](C)O)[C@@H](C)O` [C-RAF, Ac-RQRST{pS}TPNVH-CONH2] (HELM PEPTIDE1{[ac].R.Q.R.S.T.[O=C([C@H](COP(=O)(O)O)N[*:1])[*:2]].T.P.N.V.H.[am]}$$$$V2.0): binding on 14-3-3σ [1] was characterised by a dissociation constant (Kd) of 4.64 µM. The same compound displayed a Ki at 14-3-3σ [2] of 9.5 µM.
